Measured values reported in patent US7713994B2 (Wyeth LLC, priority 2005, dated 2010).

What was measured:
cyclin E/CDK2 enzyme = molecular target: T1, cyclin E/CDK2 enzyme (Homo sapiens, UniProt P24941); assay: CDK2 ELISA kinase assay (phospho-Rb ser 795 detection); format: biochemical; conditions: In Vitro Enzyme Assays, read-out: CDK2 IC50
T1 construct: made in house; host or cells: Sf9 insect cells, recombinant baculovirus
In short: (§1)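 Partially purified Sf9-expressed cyclin D1/CDK4, cyclin E/CDK2 or cyclin B/CDK1 phosphorylated plate-bound GST-Rb C-terminal fragment with 200 μM ATP at 30° C for 1 h.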

MCF-7 = assay: Cytotoxicity assay (SRB), MCF-7; format: cell-based; conditions: Homo sapiens, MCF7, 72 h, MCF-7 cells, SRB, three days; read-out: In Vitro Cellular Activity IC50 MCF-7
In short: (§2)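 Plate cells, let them attach overnight, add compound dilutions in RPMI 1640/5% FBS, and incubate 3 days (BT474 6 days). Then fix with TCA, stain with SRB, dissolve the dye in Tris and read at 540 nm.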

BT474 = assay: Cytotoxicity assay (SRB), BT474; format: cell-based; conditions: Homo sapiens, BT-474, 144 h, BT474 cells, SRB, 6 days; read-out: In Vitro Cellular Activity IC50 BT474
In short: as §2

HCT-116 = assay: Cytotoxicity assay (SRB), HCT-116; format: cell-based; conditions: Homo sapiens, HCT-116, 72 h, HCT116 cells, SRB, three days; read-out: In Vitro Cellular Activity IC50 HCT116
In short: as §2

cyclin D1/cdk 4 enzyme = molecular target: T2, cyclin D1/cdk 4 enzyme (Homo sapiens, UniProt P11802); assay: CDK4 ELISA kinase assay (phospho-Rb ser 795 detection); format: biochemical; conditions: In Vitro Enzyme Assays, 200 μM ATP, read-out: CDK4 IC50
T2 construct: made in house; host or cells: Sf9 insect cells, recombinant baculovirus
In short: as §1

cyclin B/CDK1 enzyme = molecular target: T3, cyclin B/CDK1 enzyme (Homo sapiens, UniProt P06493); assay: CDK1 ELISA kinase assay (phospho-Rb ser 795 detection); format: biochemical; conditions: In Vitro Enzyme Assays, read-out: CDK1 IC50
T3 construct: purchased New England BioLabs; host or cells: Sf9 insect cells, recombinant baculovirus
In short: as §1

LoVo = assay: Cytotoxicity assay (SRB), LoVo; format: cell-based; conditions: Homo sapiens, LoVo, 72 h, LoVo cells, SRB, three days; read-out: In Vitro Cellular Activity IC50 LOVO
In short: as §2

T2 sequence (P11802 whole entry, species assumed): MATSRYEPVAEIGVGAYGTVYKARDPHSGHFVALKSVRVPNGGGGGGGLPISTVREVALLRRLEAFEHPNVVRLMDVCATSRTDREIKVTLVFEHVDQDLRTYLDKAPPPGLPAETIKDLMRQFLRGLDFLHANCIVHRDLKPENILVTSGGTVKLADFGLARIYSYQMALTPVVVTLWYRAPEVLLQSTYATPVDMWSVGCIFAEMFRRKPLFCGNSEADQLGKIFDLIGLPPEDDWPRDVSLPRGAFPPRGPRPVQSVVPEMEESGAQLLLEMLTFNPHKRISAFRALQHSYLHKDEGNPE
T2 sequence (P24385 whole entry partner, species assumed): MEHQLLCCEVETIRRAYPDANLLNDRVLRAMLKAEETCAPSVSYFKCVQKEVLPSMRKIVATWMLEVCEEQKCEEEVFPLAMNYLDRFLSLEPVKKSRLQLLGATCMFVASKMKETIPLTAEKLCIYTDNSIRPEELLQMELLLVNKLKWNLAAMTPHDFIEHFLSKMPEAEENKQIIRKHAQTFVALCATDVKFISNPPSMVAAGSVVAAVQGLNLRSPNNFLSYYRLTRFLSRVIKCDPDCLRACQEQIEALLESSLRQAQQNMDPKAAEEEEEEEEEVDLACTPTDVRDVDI
T3 sequence (P06493 whole entry): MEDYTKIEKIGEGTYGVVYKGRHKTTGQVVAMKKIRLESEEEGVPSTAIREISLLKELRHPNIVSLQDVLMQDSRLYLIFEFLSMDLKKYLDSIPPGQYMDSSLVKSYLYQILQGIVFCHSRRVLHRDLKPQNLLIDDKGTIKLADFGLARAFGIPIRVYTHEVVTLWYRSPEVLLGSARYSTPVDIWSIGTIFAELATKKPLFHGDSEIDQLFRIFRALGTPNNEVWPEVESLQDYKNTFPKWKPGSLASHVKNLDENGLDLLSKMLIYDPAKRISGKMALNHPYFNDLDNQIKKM
T3 sequence (P14635 whole entry partner): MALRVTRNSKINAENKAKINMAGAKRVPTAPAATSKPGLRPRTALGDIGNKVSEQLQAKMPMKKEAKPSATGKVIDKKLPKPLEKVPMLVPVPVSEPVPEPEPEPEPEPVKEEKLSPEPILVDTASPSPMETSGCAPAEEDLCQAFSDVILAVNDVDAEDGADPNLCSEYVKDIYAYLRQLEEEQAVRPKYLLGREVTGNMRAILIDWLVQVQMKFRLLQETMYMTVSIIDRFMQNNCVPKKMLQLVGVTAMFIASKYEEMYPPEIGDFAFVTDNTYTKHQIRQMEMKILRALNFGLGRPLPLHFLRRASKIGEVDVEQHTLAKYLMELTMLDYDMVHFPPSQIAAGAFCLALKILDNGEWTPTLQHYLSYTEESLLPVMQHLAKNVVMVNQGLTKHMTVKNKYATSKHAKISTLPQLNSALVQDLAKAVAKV

SMILES | IC50 (cyclin E/CDK2 enzyme) [µM] | melting point | IC50 (cyclin D1/cdk 4 enzyme) [µM] | IC50 (cyclin B/CDK1 enzyme) [µM] | IC50 (MCF-7) [µM] | IC50 (BT474) [µM] | IC50 (HCT-116) [µM] | IC50 (LoVo) [µM]
CO[C@H]1CCN(Cc2ccc(N/C=C3\C(=O)NC(=O)c4ccc(-c5ccc(F)cc5)cc43)cc2)C1 [Example 265, (4Z)-6-(4-Fluorophenyl)-4-{[(4-{[(3S)-3-methoxypyrrolidin-1-yl]methyl}phenyl)amino]methylene}isoquinoline-1,3(2H,4H)-dione] | > 50 | 145 to 146 °C | 0.3 | > 50 | 1.4 | 1.7 | 2 | 2.8
O=C1NC(=O)c2ccc(I)cc2/C1=C/NCc1ccc(OC(F)F)c(O)c1 [Example 267] | 1.7 | 254 to 255 °C | 0.008 | 16.5 | 4.8 | 3.5 | 3.7 | 3.7
CCCOc1ccc(CNC=C2C(=O)NC(=O)c3ccc(-n4cccc4)cc32)cc1O [Example 278, 4-[(3-Hydroxy-4-propoxy-benzylamino)-methylene]-6-pyrrol-1-yl-4H-isoquinoline-1,3-dione] | > 50 | 215 to 216 °C (dec.) | 0.03 | > 50 | 6.3 | 5 | 2.9 | 4.7
CC1CCCN1Cc1ccc(N/C=C2\C(=O)NC(=O)c3ccc(-c4ccc(F)cc4)cc32)cc1 (stereo not drawn) [Example 289, (4Z)-6-(4-Fluorophenyl)-4-[({4-[(2-methylpyrrolidin-1-yl)methyl]phenyl}amino)-methylene]isoquinoline-1,3(2H,4H)-dione] | > 50 | 165 to 166 °C | 0.31 | > 50 | 0.9 | 1.3 | 2.2 | 7.4
CN1CCN(c2ccc(N/C=C3\C(=O)NC(=O)c4ccc(-c5ccc(F)cc5)cc43)cc2F)CC1 [Example 290, (4Z)-4-({[3-Fluoro-4-(4-methylpiperazin-1-yl)phenyl]amino}methylene)-6-(4-fluorophenyl)isoquinoline-1,3(2H,4H)-dione] | > 50 | 166 to 167 °C | 0.32 | > 50 | 2.3 | 2.5 | 1.8 | 5.4
CN1CCN(c2ccc(N/C=C3\C(=O)NC(=O)c4ccc(I)cc43)cc2F)CC1 [Example 295, (4Z)-4-({[3-Fluoro-4-(4-methylpiperazin-1-yl)phenyl]amino}methylene)-6-iodoisoquinoline-1,3(2H,4H)-dione] | > 50 | 211 to 212 °C | 1.5 | > 50 | 1.8 | 3.1 | 3.1 | 3.7
CN1CCN(c2ccc(N/C=C3\C(=O)NC(=O)c4ccc(-c5ccoc5)cc43)cc2F)CC1 [Example 297, (4Z)-4-({[3-Fluoro-4-(4-methylpiperazin-1-yl)phenyl]amino}methylene)-6-(3-furyl)isoquinoline-1,3(2H,4H)-dione] | > 50 | 203 to 204 °C | 0.08 | > 50 | 0.95 | 1.2 | 2.2 | 2
COC[C@@H]1CCCN1Cc1ccc(N/C=C2\C(=O)NC(=O)c3ccc(-c4ccc(F)cc4)cc32)cc1 [Example 299, (4Z)-6-(4-Fluorophenyl)-4-{[(4-{[(2S)-2-(methoxymethyl)pyrrolidin-1-yl]methyl}phenyl)amino]methylene}isoquinoline-1,3(2H,4H)-dione] | > 50 | 162 to 163 °C | 0.19 | > 50 | 0.8 | 2 | 3 | 7.7
O=C1NC(=O)c2ccc(-n3cccc3)cc2C1=CNCc1cc(=O)c(O)co1 [Example 312, 4-{[(5-Hydroxy-4-oxo-4H-pyran-2-ylmethyl)-amino]-methylene}-6-pyrrol-1-yl-4H-isoquinoline-1,3-dione] | 21.6 | 310 to 312 °C (dec.) | 0.27 | > 50 | > 50 | 39 | > 50 | > 50
COc1coc(CNC=C2C(=O)NC(=O)c3ccc(Br)cc32)cc1=O [Example 316, 6-Bromo-4-{[(5-methoxy-4-oxo-4H-pyran-2-ylmethyl)-amino]-methylene}-4H-isoquinoline-1,3-dione] | 16.9 | 259 to 261 °C (dec.) | 1.3 | > 50 | 9 | 4.9 | 8.9 | 5.7

Further lines, with some results ahead:

IC50 (cyclin E/CDK2 enzyme) [µM] | melting point | IC50 (cyclin D1/cdk 4 enzyme) [µM] | IC50 (cyclin B/CDK1 enzyme) [µM] | SMILES | IC50 (MCF-7) [µM] | IC50 (BT474) [µM] | IC50 (HCT-116) [µM] | IC50 (LoVo) [µM]
> 50 | 132 to 133 °C | 1.9 | > 50 | CO[C@@H]1CCN(Cc2ccc(N/C=C3\C(=O)NC(=O)c4ccc(Br)cc43)cc2)C1 [Example 266, (4Z)-6-Bromo-4-{[(4-{[(3R)-3-methoxypyrrolidin-1-yl]methyl}phenyl)amino]methylene}isoquinoline-1,3(2H,4H)-dione] | 4 | 9.1 | 6.2 | 8.4
12.3 | 275 to 276 °C | 24.7 | > 50 | O=C1NC(=O)c2ccc(I)cc2/C1=C/Nc1ccc(Cn2ccnc2)cc1 [Example 273, (4Z)-4-({[4-(1H-Imidazol-1-ylmethyl)phenyl]amino}methylene)-6-iodoisoquinoline-1,3(2H,4H)-dione] | 13 | 7.5 | 3 | 7.9
> 50 | 176 to 177 °C | 27.7 | > 50 | O=C1NC(=O)c2ccc(-c3ccc(C(F)(F)F)cc3)cc2/C1=C/Nc1ccc(CN2CCCC2)cc1 [Example 282, (4Z)-4-({[4-(Pyrrolidin-1-ylmethyl)phenyl]amino}methylene)-6-[4-(trifluoromethyl)phenyl]isoquinoline-1,3(2H,4H)-dione] | 1.1 | 3 | 1.1 | 2.7
> 50 | 209 to 210 °C | 3 | > 50 | O=C1NC(=O)c2ccc(Br)cc2/C1=C/Nc1ccc(CN2CCOCC2)cc1 [Example 286, (4Z)-6-Bromo-4-({[4-(morpholin-4-ylmethyl)phenyl]amino}methylene)isoquinoline-1,3(2H,4H)-dione] | 5.5 | 16 | 5.8 | 11
> 50 | 183 to 184 °C | 1.6 | > 50 | CC1CCCN1Cc1ccc(N/C=C2\C(=O)NC(=O)c3ccc(Br)cc32)cc1 (stereo not drawn) [Example 287, (4Z)-6-Bromo-4-[({4-[(2-methylpyrrolidin-1-yl)methyl]phenyl}amino)methylene]-isoquinoline-1,3(2H,4H)-dione] | 1.7 | 1.3 | 4.2 | 5.4
> 50 | 206 to 207 °C | 2.9 | > 50 | CN1CCN(c2ccc(N/C=C3\C(=O)NC(=O)c4ccc(Br)cc43)cc2F)CC1 [Example 288, (4Z)-6-Bromo-4-({[3-fluoro-4-(4-methylpiperazin-1-yl)phenyl]amino}methylene)-isoquinoline-1,3(2H,4H)-dione] | 1.5 | 1.8 | 1.7 | 2
> 50 | 165 to 166 °C | 0.19 | > 50 | CC1CCCN1Cc1ccc(N/C=C2\C(=O)NC(=O)c3ccc(-c4ccoc4)cc32)cc1 (stereo not drawn) [Example 291, (4Z)-6-(3-Furyl)-4-[({4-[(2-methylpyrrolidin-1-yl)methyl]phenyl}amino)methylene]-isoquinoline-1,3(2H,4H)-dione] | 0.59 | 1 | 2.3 | 1.9
> 50 | 186 to 187 °C | 2.1 | > 50 | O=C1NC(=O)c2ccc(I)cc2/C1=C/Nc1ccc(CN2CCOCC2)cc1 [Example 296, (4Z)-6-Iodo-4-({[4-(morpholin-4-ylmethyl)phenyl]amino}methylene)isoquinoline-1,3(2H,4H)-dione] | 2.6 | 6.2 | 4 | 5
